Measurements published in patent publication US11680196B2, “Use of biodegradable hydrocarbon fluids as heat-transfer media” (TOTAL MARKETING SERVICES, priority 2016, dated 2023).

Test: Thermal stability, percentage of decomposition (GB/T 23800-2009, modified)
Format: physicochemical
Settings: after 500 hours at 320° C.
Description: The thermal stability has been evaluated in the present invention by measuring, according to the GB/T 23800-2009 standard, the percentage of decomposition of the fluid. The test performed in the present example differs from the standard by the temperature and the duration of the test. According to the example, the percentage of decomposition of the fluid has been measured after 500 hours at 320° C.
The fluid of Ex. 3 according to the invention and defined above has been compared with other commercial fluids: an alkylbenzene fluid, a dibenzyltoluene isomer, a mineral base oil and a hydrotreated mineral base oil.

## dibenzyltoluene isomer
  Thermal stability (% of decomposition): 6.9%
